In PubChem BioAssay (NCI):
Values joined by “and” are separate entries in the source; they are usually repeats but may differ in a detail not shown here. Identical values can stand only once.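 Compound exposure: 48 hours, 5 concentrations, 96-well plates. The concentration for 50% growth inhibition is given as GI50. TGI marks complete inhibition of growth.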

Columns and labels:
Assay in all cases: NCI tumour cell line growth inhibition, 48 h
BT-549 breast = test system: BT-549 breast
HCC-2998 colon = test system: HCC-2998 colon
MDA-N = test system: MDA-N
OVCAR-4 ovarian = test system: OVCAR-4 ovarian
HCT-15 colon = test system: HCT-15 colon
SK-OV-3 ovarian = test system: SK-OV-3 ovarian
MCF7 breast = test system: MCF7 breast
IGROV1 ovarian = test system: IGROV1 ovarian
NCI-H23 lung = test system: NCI-H23 lung
A549 NSCLC = test system: A549 NSCLC

Compound | TGI (BT-549 breast) | TGI (HCC-2998 colon) | TGI (MDA-N) | TGI (OVCAR-4 ovarian) | TGI (HCT-15 colon) | TGI (SK-OV-3 ovarian) | TGI (MCF7 breast) | TGI (IGROV1 ovarian) | TGI (NCI-H23 lung) | TGI (A549 NSCLC) | GI50 (HCC-2998 colon) | GI50 (HCT-15 colon) | GI50 (SK-OV-3 ovarian) | GI50 (MCF7 breast) | GI50 (IGROV1 ovarian) | GI50 (NCI-H23 lung)
O=C1c2ccccc2C2(c3ccc(Cl)cc3)NCc3ccccc3CN12 (stereo unspecified) | > 100 µM | 45.6 µM | > 100 µM | 79.3 µM | 60.7 µM | 80.9 µM | 40 µM | 94.7 µM | 48.4 µM | 43.8 µM | – | – | – | – | – | –
O=C(Nc1ccc2ccccc2c1)Nn1cnnc1 | > 100 µM | > 100 µM | > 100 µM | > 100 µM | > 100 µM | > 100 µM | > 100 µM | > 100 µM | > 100 µM | > 100 µM | – | – | – | – | – | –
CC(C)OC(=O)c1ccc(CCC2=CC(=O)C(Br)=CC2=O)cc1 | 16.8 µM | 31.9 µM | 30.9 µM | 23.1 µM | 29.6 µM | > 100 µM | 35.2 µM | 27.8 µM | 26.2 µM | > 100 µM | – | – | – | – | – | –
O=C1c2ccccc2C(=O)N1C(=S)c1ccccc1 | > 100 µM | > 100 µM | > 100 µM | > 100 µM | > 100 µM | > 100 µM | > 100 µM | > 100 µM | > 100 µM | > 100 µM | – | – | – | – | – | –
O=C(c1ccc(Cl)cc1)N1N=C(c2ccc(Cl)cc2)CC1(O)c1cc(F)c(Cl)cc1Cl (stereo unspecified) | > 100 µM | 47.1 µM | 28.5 µM | 51.5 µM | > 100 µM | > 100 µM | > 100 µM | > 100 µM | 73 µM | > 100 µM | – | – | – | – | – | –
CCCCCC(/C=C/[C@@H]1CC(=O)C[C@H]1O[Si](C)(C)C(C)(C)C)OCOCCOC (stereo partly specified) | 11.7 µM | 29.8 µM | 9.44 µM | 26.3 µM | 15.2 µM | 32 µM | > 43.5 µM | 9.48 µM | 12.9 µM | 33.5 µM | – | – | – | – | – | –
CC(/C=N/NC1=NCCCCN1)=N\NC1=NCCCCN1 | > 100 µM | > 100 µM | > 100 µM | > 100 µM | > 100 µM | > 100 µM | > 100 µM | > 100 µM | > 100 µM | > 100 µM | – | – | – | – | – | –
Cc1cc(=O)c2c(O)c3c(O)cc(O)c4c5c(O)cc(O)c6c(O)c7c(=O)cc(C)c8c1c2c(c34)c(c65)c78 | > 100 µM | > 100 µM | > 100 µM | > 100 µM | > 100 µM and 52 µM | > 100 µM and 41.9 µM | > 100 µM and 36.3 µM | > 100 µM | > 100 µM and 60.2 µM | > 100 µM | > 100 µM and 28.3 µM | > 100 µM and 20.1 µM | > 100 µM and 21.6 µM | > 100 µM and 16.6 µM | > 100 µM | > 100 µM and 23 µM
Cc1cccc2c(N)c3cccc(C(=O)NCC[N+](C)(C)Cc4sc(N5CCOCC5)nc4[N+](=O)[O-])c3nc12 | 40.8 µM | 3.41 µM | 21.8 µM | 14.4 µM | 13.3 µM | 6.19 µM | 13.5 µM | > 100 µM | 15.3 µM | 2.55 µM | – | – | – | – | – | –
Cc1ccccc1NC(=S)N/N=C(/c1ccccc1)c1ccccn1 | 18.5 µM | 14.3 µM | 14.1 µM | 20.8 µM | 15.8 µM | 14.2 µM | 15.3 µM | 15.3 µM | 21.5 µM | 11.8 µM | – | – | – | – | – | –
C1OCN2c3nonc3N3COCN4c5nonc5N1C2C43 (stereo unspecified) | > 100 µM | > 100 µM | > 100 µM | > 100 µM | > 100 µM | > 100 µM | > 100 µM | > 100 µM | > 100 µM | > 100 µM | – | – | – | – | – | –
CC1(C)Oc2ccc(Cl)cc2C12CC2 | 68.5 µM | 30.6 µM | 35.9 µM | 29.6 µM | 33 µM | 44.7 µM | 33.3 µM | 28.7 µM | 59 µM | 48.4 µM | – | – | – | – | – | –
CC[C@@]1(O)C(=O)OCc2c1cc1n(c2=O)Cc2c-1nc1ccccc1c2/C=N\NC(=O)C(N)CS (stereo partly specified) | > 100 µM | > 100 µM | > 100 µM | > 100 µM | > 100 µM | > 100 µM | > 100 µM | > 85.3 µM | 21.1 µM | > 100 µM | – | – | – | – | – | –
O=[N+]([O-])c1cccc2nc3ccccc3c(NCCC[N+]3([O-])CCCCC3)c12 | 1.53 µM | 0.272 µM | 0.56 µM | 1.15 µM | > 100 µM | 4.58 µM | 1.99 µM | 6.33 µM | 0.622 µM | 3.92 µM | – | – | – | – | – | –
CC(=O)NC1C(OCc2ccccc2)OC(CO)C(O)C1OCC(=O)NC(C)C(=O)NC(CCC(=O)NCCCCCC(=O)Nc1ccc2c(c1)CN1C(=O)c3ccccc3C1=N2)C(N)=O (stereo unspecified) | > 100 µM | > 100 µM | > 100 µM | > 100 µM | > 100 µM | > 100 µM | > 100 µM | > 100 µM | > 100 µM | > 100 µM | – | – | – | – | – | –
COc1ccc(OC)c(CNc2ccc(O)c(C(=O)NCCc3ccc(F)cc3)c2)c1 | 73.6 µM | 8.98 µM | 23 µM | 66.2 µM | 44.9 µM | 46.3 µM | 59.2 µM | 20.9 µM | > 100 µM | > 100 µM | – | – | – | – | – | –

Compound | TGI (BT-549 breast) | TGI (HCC-2998 colon) | TGI (MDA-N) | TGI (OVCAR-4 ovarian) | TGI (HCT-15 colon) | TGI (SK-OV-3 ovarian) | TGI (MCF7 breast) | TGI (IGROV1 ovarian) | TGI (NCI-H23 lung) | TGI (A549 NSCLC) | GI50 (HCC-2998 colon) | GI50 (HCT-15 colon) | GI50 (SK-OV-3 ovarian) | GI50 (MCF7 breast) | GI50 (IGROV1 ovarian) | GI50 (NCI-H23 lung)
O=c1c2cc(-c3ccccc3)cnc2sn1-c1ccc([N+](=O)[O-])cc1 | > 100 µM | > 100 µM | > 100 µM | > 100 µM | > 100 µM | > 100 µM | > 100 µM | > 100 µM | > 100 µM | > 100 µM | – | – | – | – | – | –
CC(O)(c1ccccc1)c1nccc2ccccc12 (stereo unspecified) | > 100 µM | > 100 µM | 53.7 µM | > 100 µM | > 100 µM | > 100 µM | > 100 µM | > 100 µM | > 100 µM | > 100 µM | – | – | – | – | – | –
Cc1ccc(S(=O)(=Nc2ccccc2)C(C(C)C)C(C)(C)Cl)cc1 (stereo unspecified) | > 50 µM | > 50 µM | > 50 µM | > 50 µM | > 50 µM | > 50 µM | > 50 µM | > 50 µM | 46.5 µM | > 50 µM | – | – | – | – | – | –
Cc1ccc(S(=O)(=O)n2cc(-c3cnc(N)c(Br)n3)c3ccccc32)cc1 | > 100 µM | > 100 µM | 0.836 µM | > 100 µM | > 100 µM | > 100 µM | > 45.7 µM | 5.71 µM | 5.94 µM | > 100 µM | – | – | – | – | – | –
FC1CCN(C2(c3cccs3)CCCCC2)CC1 | > 100 µM | > 100 µM | > 100 µM | > 100 µM | > 100 µM | > 100 µM | > 100 µM | > 100 µM | > 100 µM | > 100 µM | – | – | – | – | – | –
O=c1c2c([nH]c3cc4c(cc13)OCO4)-c1ccccc1CCC2 | > 50 µM | > 50 µM | > 50 µM | > 50 µM | > 50 µM | > 50 µM | > 50 µM | > 50 µM | > 50 µM | > 50 µM | – | – | – | – | – | –
CC(=O)O[C@H]1CC[C@@]2(C)C(=CC[C@@H]3[C@@H]2CC[C@]2(C)c4nc(N)c(C#N)cc4C[C@@H]32)C1 | > 63.7 µM | > 100 µM | > 100 µM | > 86.9 µM | > 42.6 µM | > 83.8 µM | > 100 µM | > 100 µM | > 100 µM | > 100 µM | – | – | – | – | – | –
COc1cc2c3c(cc(Cl)nc3c1OC)C(O)(CC(C)=O)C(=O)N2 (stereo unspecified) | 30.8 µM | > 60.5 µM | 31.1 µM | 32.4 µM | > 62.5 µM | > 72.8 µM | 35.9 µM | 36.6 µM | > 60.8 µM | > 62.3 µM | – | – | – | – | – | –
CN(N)C(=O)NCCCl | > 100 µM | > 100 µM | > 100 µM | > 100 µM | > 100 µM | > 100 µM | > 100 µM | > 100 µM | > 100 µM | > 100 µM | – | – | – | – | – | –
CN(C)CCCNC(=O)c1cc(NC(=O)c2cc(NC(=O)c3cc(NC(=O)CCCn4ccc(CO)c4CO)cn3C)cn2C)cn1C | 7.51 µM | > 100 µM | > 100 µM | > 100 µM | > 100 µM | > 100 µM | > 100 µM | > 100 µM | > 100 µM | 75.4 µM | – | – | – | – | – | –
O=C1CCC2=C(CCC2)N1CCc1ccc2c(c1)OCO2 | 85.4 µM | > 100 µM | > 100 µM | > 100 µM | > 100 µM | > 100 µM | > 100 µM | > 100 µM | > 100 µM | > 100 µM | – | – | – | – | – | –
O=C1Nc2ccccc2NC1C1OC(c2ccccc2)=CC1=O (stereo unspecified) | > 100 µM | > 100 µM | > 100 µM | > 100 µM | > 100 µM | > 100 µM | > 100 µM | > 100 µM | > 100 µM | > 100 µM | – | – | – | – | – | –
CCCCCCC(CCl)c1sc(-c2csc(CCNC(=O)OC(C)(C)C)n2)nc1C(=O)OC (stereo unspecified) | 58.3 µM | 62.6 µM | 87.9 µM | 78 µM | 73.5 µM | 88.2 µM | 29.5 µM | > 100 µM | > 100 µM | > 100 µM | – | – | – | – | – | –
COc1ccc(N2C(=O)C3c4[nH]c5ccccc5c4C4CCC(C(C)C)CC4C3C2=O)cc1 (stereo unspecified) | > 100 µM | > 100 µM | > 100 µM | > 100 µM | > 100 µM | > 100 µM | > 100 µM | > 100 µM | > 100 µM | > 100 µM | – | – | – | – | – | –
c1ccc(C(CCN2CCCC2)c2ccccn2)cc1 (stereo unspecified) | > 100 µM | > 100 µM | > 100 µM | > 100 µM | > 100 µM | > 100 µM | > 100 µM | > 100 µM | > 100 µM | > 100 µM | – | – | – | – | – | –
O=C([C@H](O)[C@@H](O)c1ccc(Br)cc1)C12CC3CC(CC(C3)C1)C2 | 24 µM | > 38.9 µM | > 100 µM | > 100 µM | > 75 µM | > 75.2 µM | > 39.7 µM | 12.9 µM | > 37.9 µM | 97 µM | – | – | – | – | – | –
